Measurements published in ChEMBL document CHEMBL6127049, “Discovery of the selective and nanomolar inhibitor of DPP-4 more potent than sitagliptin by structure-guided rational design” (Eur J Med Chem, 2024).
Calls of active or inactive are those of the source. The calls are words filed in the database; no cut-off is given here.

Assays:
[1] = target: Dipeptidyl peptidase 4 (Homo sapiens, UniProt P27487); experiment: Inhibition of DPP4 (unknown origin) assessed as hydrolysis rate using Gly-pro-p-nitroanilide as substrate measured after 20 mins incubation by fluorometric assay
[2] = target: Dipeptidyl peptidase 8 (Homo sapiens, UniProt Q6V1X1); experiment: Inhibition of DPP8 (unknown origin) assessed as hydrolysis rate using Gly-pro-p-nitroanilide as substrate measured after 20 mins incubation by […] assay
[3] = target: Dipeptidyl peptidase 9 (Homo sapiens, UniProt Q86TI2); experiment: Inhibition of DPP9 (unknown origin) assessed as hydrolysis rate using Gly-pro-p-nitroanilide as substrate measured after 20 mins incubation by […] assay
[4] = Acute toxicity in Balb/C mouse assessed as changes in general appearance at 1250 to 2000 mg/kg, po; format: organism-based; settings: in vivo, dose 1250-2000 mg/kg
[5] = Acute toxicity in Balb/C mouse assessed as morphological changes in skin at 1250 to 2000 mg/kg, po; format: organism-based; settings: in vivo, dose 1250-2000 mg/kg
[6] = Acute toxicity in Balb/C mouse assessed as morphological changes in fur at 1250 to 2000 mg/kg, po; format: organism-based; settings: in vivo, dose 1250-2000 mg/kg
[7] = Acute toxicity in Balb/C mouse assessed as morphological changes in nose at 1250 to 2000 mg/kg, po; format: organism-based; settings: in vivo, dose 1250-2000 mg/kg
[8] = Acute toxicity in Balb/C mouse assessed as morphological changes in eyes at 1250 to 2000 mg/kg, po; format: organism-based; settings: in vivo, dose 1250-2000 mg/kg
[9] = Acute toxicity in Balb/C mouse assessed as morphological changes in convulsions at 1250 to 2000 mg/kg, po; format: organism-based; settings: in vivo, dose 1250-2000 mg/kg
[10] = Acute toxicity in Balb/C mouse assessed as morphological changes in diarrhea at 1250 to 2000 mg/kg, po; format: organism-based; settings: in vivo, dose 1250-2000 mg/kg
[11] = Acute toxicity in Balb/C mouse assessed as morphological changes in salvation at 1250 to 2000 mg/kg, po; format: organism-based; settings: in vivo, dose 1250-2000 mg/kg
[12] = Acute toxicity in Balb/C mouse assessed as morphological changes in unusual behavior at 1250 to 2000 mg/kg, po; format: organism-based; settings: in vivo, dose 1250-2000 mg/kg
[13] = test system: Rattus norvegicus; experiment: Anti-diabetic activity in normal Wistar rat model assessed as blood glucose level at 10 mg/kg, po followed by treated administered 3 mg/kg orally measured after 30 mins by Oral glucose tolerance test (reference value: […] 176.14 + /- 4.04 mg/dL); format: functional; settings: 0.5 h
[14] = test system: Rattus norvegicus; experiment: Anti-diabetic activity in normal Wistar rat model assessed as blood glucose level at 10 mg/kg, po followed by treated administered 3 mg/kg orally measured after 90 mins by Oral glucose tolerance test (reference value: 134.11 + /- 4.64 mg/dL); format: functional; settings: 1.5 h
[15] = test system: Rattus norvegicus; experiment: Anti-diabetic activity in normal Wistar rat model assessed as blood glucose level at 10 mg/kg, po followed by treated administered 3 mg/kg orally measured after 120 mins by Oral glucose tolerance test (reference value: 126.5 + /- 3.90 mg/dL); format: functional; settings: 2 h
[16] = test system: Rattus norvegicus; experiment: Anti-diabetic activity in normal Wistar rat model assessed as blood glucose level at 20 mg/kg, po followed by treated administered 3 mg/kg orally measured after 30 mins by Oral glucose tolerance test (reference value: 176.14 + /- 4.04 mg/dL); format: functional; settings: 0.5 h
[17] = test system: Rattus norvegicus; experiment: Anti-diabetic activity in normal Wistar rat model assessed as blood glucose level at 20 mg/kg, po followed by treated administered 3 mg/kg orally measured after 60 mins by Oral glucose tolerance test (reference value: 153.74 + /- 3.94 mg/dL); format: functional; settings: 1 h
[18] = test system: Rattus norvegicus; experiment: Anti-diabetic activity in normal Wistar rat model assessed as blood glucose level at 20 mg/kg, po followed by treated administered 3 mg/kg orally measured after 90 mins by Oral glucose tolerance test (reference value: 134.11 + /- 4.64 mg/dL); format: functional; settings: 1.5 h
[19] = test system: Rattus norvegicus; experiment: Anti-diabetic activity in normal Wistar rat model assessed as blood glucose level at 20 mg/kg, po followed by treated administered 3 mg/kg orally measured immediately after administration by Oral glucose tolerance test (reference value: 105.12 mg/dL); format: functional
[20] = test system: Rattus norvegicus; experiment: Anti-diabetic activity in STZ-induced type 2 diabetes male Wistar albino rat model assessed as fasting blood glucose level at 20 mg/kg, po measured on day 1; format: functional; settings: time 1 day
[21] = test system: Rattus norvegicus; experiment: Anti-diabetic activity in STZ-induced type 2 diabetes male Wistar albino rat model assessed as fasting blood glucose level at 20 mg/kg, po measured on day 7; format: functional; settings: time 7 day
[22] = test system: Rattus norvegicus; experiment: Anti-diabetic activity in STZ-induced type 2 diabetes male Wistar albino rat model assessed as fasting blood glucose level at 20 mg/kg, po measured on day 14; format: functional; settings: time 14 day
[23] = test system: Rattus norvegicus; experiment: Anti-diabetic activity in STZ-induced type 2 diabetes male Wistar albino rat model assessed as fasting blood glucose level at 20 mg/kg, po measured on day 21; format: functional; settings: time 21 day
[24] = test system: Rattus norvegicus; experiment: Antihyperlipidemic effect in STZ-induced type 2 diabetes male Wistar albino rat model assessed as total cholesterol level at 10 mg/kg, po measured after 4 weeks (reference value: 227.04 +/- 4.10 mg/dL); format: functional
[25] = test system: Rattus norvegicus; experiment: Antihyperlipidemic effect in STZ-induced type 2 diabetes male Wistar albino rat model assessed as HDL level at 10 mg/kg, po measured after 4 weeks (reference value: 25.54 +/- 2.62 mg/dL); format: functional
[26] = test system: Rattus norvegicus; experiment: Antihyperlipidemic effect in STZ-induced type 2 diabetes male Wistar albino rat model assessed as LDL level at 10 mg/kg, po measured after 4 weeks (reference value: 184.65 +/- 4.57 mg/dL); format: functional
[27] = test system: Rattus norvegicus; experiment: Antihyperlipidemic effect in STZ-induced type 2 diabetes male Wistar albino rat model assessed as triglyceride level at 10 mg/kg, po measured after 4 weeks (reference value: 190.23 +/- 4.37 mg/dL); format: functional
[28] = test system: Rattus norvegicus; experiment: Antihyperlipidemic effect in STZ-induced type 2 diabetes male Wistar albino rat model assessed as total cholesterol level at 20 mg/kg, po measured after 4 weeks (reference value: 227.04 +/- 4.10 mg/dL); format: functional
[29] = test system: Rattus norvegicus; experiment: Antihyperlipidemic effect in STZ-induced type 2 diabetes male Wistar albino rat model assessed as HDL level at 20 mg/kg, po measured after 4 weeks (reference value: 25.54 +/- 2.62 mg/dL); format: functional
[30] = test system: Rattus norvegicus; experiment: Antihyperlipidemic effect in STZ-induced type 2 diabetes male Wistar albino rat model assessed as triglyceride level at 20 mg/kg, po measured after 4 weeks (reference value: 190.23 +/- 4.37 mg/dL); format: functional
[31] = test system: Rattus norvegicus; experiment: Reduction of alkaline phosphatase (ALP) level in STZ-induced type 2 diabetes male Wistar albino rat model at 10 mg/kg, po measured after 4 weeks by hepatic function test; format: functional, organism-based
[32] = test system: Rattus norvegicus; experiment: Reduction of serum glutamate pyruvate transaminase (SGPT) level in STZ-induced type 2 diabetes male Wistar albino rat model at 10 mg/kg, po measured after 4 weeks by hepatic function test; format: functional, organism-based
[33] = test system: Rattus norvegicus; experiment: Reduction of serum glutamate oxaloacetate transaminase (SGOT) level in STZ-induced type 2 diabetes male Wistar albino rat model at 20 mg/kg, po measured after 4 weeks by hepatic function test; format: functional, organism-based
[34] = test system: Rattus norvegicus; experiment: Reduction of insulin level in STZ-induced type 2 diabetes male Wistar albino rat model at 20 mg/kg, po measured after 4 weeks by hepatic function test; format: functional, organism-based

Dipeptidyl peptidase 4, sequence (P27487 whole entry): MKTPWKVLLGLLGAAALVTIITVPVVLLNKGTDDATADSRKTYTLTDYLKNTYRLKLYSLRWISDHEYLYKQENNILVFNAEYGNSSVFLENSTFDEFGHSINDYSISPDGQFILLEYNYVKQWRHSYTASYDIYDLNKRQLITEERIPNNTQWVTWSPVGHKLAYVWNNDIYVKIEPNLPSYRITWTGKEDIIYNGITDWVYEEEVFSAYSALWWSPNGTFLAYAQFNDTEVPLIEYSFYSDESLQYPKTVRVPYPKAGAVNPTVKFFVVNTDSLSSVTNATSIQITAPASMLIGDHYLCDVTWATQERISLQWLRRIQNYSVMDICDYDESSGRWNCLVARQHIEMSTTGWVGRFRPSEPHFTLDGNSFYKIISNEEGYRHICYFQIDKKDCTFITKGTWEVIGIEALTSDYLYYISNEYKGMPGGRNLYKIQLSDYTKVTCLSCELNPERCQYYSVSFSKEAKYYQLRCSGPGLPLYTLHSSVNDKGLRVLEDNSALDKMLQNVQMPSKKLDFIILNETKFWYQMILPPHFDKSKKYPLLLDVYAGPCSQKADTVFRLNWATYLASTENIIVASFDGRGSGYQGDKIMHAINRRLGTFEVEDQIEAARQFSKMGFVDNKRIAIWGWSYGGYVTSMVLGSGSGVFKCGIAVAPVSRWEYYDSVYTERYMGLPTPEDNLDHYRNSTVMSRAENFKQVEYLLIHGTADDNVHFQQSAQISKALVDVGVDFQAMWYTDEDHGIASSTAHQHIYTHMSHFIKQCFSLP
Dipeptidyl peptidase 8, sequence (Q6V1X1 whole entry): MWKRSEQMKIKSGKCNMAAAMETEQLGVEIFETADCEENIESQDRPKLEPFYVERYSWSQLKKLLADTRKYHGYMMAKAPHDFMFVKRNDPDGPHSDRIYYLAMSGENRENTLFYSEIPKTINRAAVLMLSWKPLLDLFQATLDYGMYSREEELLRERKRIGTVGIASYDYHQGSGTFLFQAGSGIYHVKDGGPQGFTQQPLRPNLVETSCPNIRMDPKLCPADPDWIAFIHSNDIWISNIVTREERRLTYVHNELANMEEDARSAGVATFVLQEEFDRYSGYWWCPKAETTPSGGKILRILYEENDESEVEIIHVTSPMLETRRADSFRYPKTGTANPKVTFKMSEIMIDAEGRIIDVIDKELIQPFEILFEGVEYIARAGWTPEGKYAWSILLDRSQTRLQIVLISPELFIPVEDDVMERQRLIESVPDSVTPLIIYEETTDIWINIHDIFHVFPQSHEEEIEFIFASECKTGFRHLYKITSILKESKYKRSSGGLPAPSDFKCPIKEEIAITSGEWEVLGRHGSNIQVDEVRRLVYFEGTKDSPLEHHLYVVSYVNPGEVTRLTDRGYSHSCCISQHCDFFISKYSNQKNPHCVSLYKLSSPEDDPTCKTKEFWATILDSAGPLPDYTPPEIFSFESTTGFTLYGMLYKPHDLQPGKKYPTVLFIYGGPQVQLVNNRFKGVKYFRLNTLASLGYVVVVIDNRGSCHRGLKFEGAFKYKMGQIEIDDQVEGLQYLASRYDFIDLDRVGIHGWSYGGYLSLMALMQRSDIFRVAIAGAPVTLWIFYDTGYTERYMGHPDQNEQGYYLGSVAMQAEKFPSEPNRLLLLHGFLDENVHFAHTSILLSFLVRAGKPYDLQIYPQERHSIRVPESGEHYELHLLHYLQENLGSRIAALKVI
Dipeptidyl peptidase 9, sequence (Q86TI2 whole entry): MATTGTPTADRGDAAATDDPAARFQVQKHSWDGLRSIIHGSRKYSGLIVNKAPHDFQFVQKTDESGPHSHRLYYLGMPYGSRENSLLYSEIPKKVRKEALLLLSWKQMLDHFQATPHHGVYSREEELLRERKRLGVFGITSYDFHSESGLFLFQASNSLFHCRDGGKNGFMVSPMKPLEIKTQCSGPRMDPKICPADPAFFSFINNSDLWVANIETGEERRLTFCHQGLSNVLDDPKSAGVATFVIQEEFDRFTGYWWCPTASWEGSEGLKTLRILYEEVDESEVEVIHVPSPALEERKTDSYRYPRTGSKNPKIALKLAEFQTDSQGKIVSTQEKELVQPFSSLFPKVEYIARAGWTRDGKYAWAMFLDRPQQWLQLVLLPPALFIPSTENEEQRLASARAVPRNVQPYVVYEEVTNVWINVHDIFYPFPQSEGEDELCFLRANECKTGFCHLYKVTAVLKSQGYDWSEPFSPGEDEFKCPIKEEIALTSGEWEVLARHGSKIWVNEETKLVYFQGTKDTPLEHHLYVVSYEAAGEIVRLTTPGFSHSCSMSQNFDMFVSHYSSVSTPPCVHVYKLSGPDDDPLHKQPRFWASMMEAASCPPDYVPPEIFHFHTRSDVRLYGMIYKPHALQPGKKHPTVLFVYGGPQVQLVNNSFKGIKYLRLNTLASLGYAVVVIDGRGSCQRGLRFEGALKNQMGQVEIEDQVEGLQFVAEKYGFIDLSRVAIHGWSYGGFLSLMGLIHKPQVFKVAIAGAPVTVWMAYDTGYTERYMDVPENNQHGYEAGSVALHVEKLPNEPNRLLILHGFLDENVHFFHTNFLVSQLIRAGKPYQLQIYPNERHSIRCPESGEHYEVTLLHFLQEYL

## CC1=C([N+](=O)[O-])C(c2ccc(F)c(F)c2)N=C(N)N1C(=O)CN1Cc2cn(S(C)(=O)=O)nc2C1 (centres undefined)
[1]
  IC50: 55 nM
[2]
  IC50: 2900 nM
[3]
  IC50: 864 nM
[4]
  Activity: Non-Toxic
[5]
  Activity: Non-Toxic
[6]
  Activity: Non-Toxic
[7]
  Activity: Non-Toxic
[8]
  Activity: Non-Toxic
[9]
  Activity: Non-Toxic
[10]
  Activity: Non-Toxic
[11]
  Activity: Non-Toxic
[12]
  Activity: Non-Toxic
[13]
  Activity: 123.04 mg/dL
[14]
  Activity: 113.96 mg/dL
[15]
  Activity: 115.78 mg/dL
[16]
  Activity: 119.42 mg/dL
[17]
  Activity: 115.22 mg/dL
[18]
  Activity: 110.57 mg/dL
[19]
  Activity: 101.87 mg/dL
[20]
  Activity: 294 mg/dL
[21]
  Activity: 188 mg/dL
[22]
  Activity: 167 mg/dL
[23]
  Activity: 134 mg/dL
[24]
  Activity: 153.02 mg/dL
[25]
  Activity: 46.32 mg/dL
[26]
  Activity: 135.67 mg/dL
[27]
  Activity: 150.32 mg/dL
[28]
  Activity: 137.34 mg/dL
[29]
  Activity: 54.1 mg/dL
[30]
  Activity: 118.76 mg/dL
[31]
  Activity: Active
[32]
  Activity: Active
[33]
  Activity: Active
[34]
  Activity: Active
